Measured values as given in ChEMBL document CHEMBL4270641, “ATP citrate lyase (ACLY) inhibitors: An anti-cancer strategy at the crossroads of glucose and lipid metabolism” (Eur J Med Chem, 2018).
pIC50, pKi: −log10 of the molar value.

Legend:
[1] = biological target: T1, ATP-citrate synthase (Rattus norvegicus) (UniProt P16638); assay: (§1) Inhibition of rat liver ACLY; details: concentration not given here
T1 sequence (whole entry): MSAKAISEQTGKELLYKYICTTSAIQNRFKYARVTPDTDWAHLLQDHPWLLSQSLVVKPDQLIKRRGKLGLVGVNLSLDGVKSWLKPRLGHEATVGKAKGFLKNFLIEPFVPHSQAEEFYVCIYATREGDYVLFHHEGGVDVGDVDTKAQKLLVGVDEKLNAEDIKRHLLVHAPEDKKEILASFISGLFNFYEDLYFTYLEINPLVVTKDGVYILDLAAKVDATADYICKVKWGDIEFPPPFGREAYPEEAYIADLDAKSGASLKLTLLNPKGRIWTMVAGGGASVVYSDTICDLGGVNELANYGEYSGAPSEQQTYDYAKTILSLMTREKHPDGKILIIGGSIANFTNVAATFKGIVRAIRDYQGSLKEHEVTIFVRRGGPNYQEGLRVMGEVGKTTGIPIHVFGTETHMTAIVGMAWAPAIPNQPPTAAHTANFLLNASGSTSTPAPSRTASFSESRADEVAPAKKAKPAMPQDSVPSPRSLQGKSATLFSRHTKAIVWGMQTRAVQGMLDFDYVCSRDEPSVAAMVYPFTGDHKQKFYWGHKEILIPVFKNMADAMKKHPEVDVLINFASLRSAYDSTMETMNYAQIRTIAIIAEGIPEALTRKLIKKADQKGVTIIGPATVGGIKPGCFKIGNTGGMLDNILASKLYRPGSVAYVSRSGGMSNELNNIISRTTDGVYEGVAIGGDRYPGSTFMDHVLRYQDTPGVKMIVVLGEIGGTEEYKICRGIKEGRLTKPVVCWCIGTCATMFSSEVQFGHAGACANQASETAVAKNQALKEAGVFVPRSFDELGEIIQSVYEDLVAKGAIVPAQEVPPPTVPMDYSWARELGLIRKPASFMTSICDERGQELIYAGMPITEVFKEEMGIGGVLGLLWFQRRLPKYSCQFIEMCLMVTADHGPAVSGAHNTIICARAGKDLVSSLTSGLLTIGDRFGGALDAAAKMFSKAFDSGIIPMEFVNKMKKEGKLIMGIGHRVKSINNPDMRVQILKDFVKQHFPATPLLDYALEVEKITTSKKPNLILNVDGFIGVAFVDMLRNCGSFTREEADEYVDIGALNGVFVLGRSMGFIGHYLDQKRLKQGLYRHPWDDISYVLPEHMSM

[2] = biological target: T2, ATP-citrate synthase (Homo sapiens, UniProt P53396); assay: Inhibition of ACLY (unknown origin)
T2 sequence (P53396 whole entry): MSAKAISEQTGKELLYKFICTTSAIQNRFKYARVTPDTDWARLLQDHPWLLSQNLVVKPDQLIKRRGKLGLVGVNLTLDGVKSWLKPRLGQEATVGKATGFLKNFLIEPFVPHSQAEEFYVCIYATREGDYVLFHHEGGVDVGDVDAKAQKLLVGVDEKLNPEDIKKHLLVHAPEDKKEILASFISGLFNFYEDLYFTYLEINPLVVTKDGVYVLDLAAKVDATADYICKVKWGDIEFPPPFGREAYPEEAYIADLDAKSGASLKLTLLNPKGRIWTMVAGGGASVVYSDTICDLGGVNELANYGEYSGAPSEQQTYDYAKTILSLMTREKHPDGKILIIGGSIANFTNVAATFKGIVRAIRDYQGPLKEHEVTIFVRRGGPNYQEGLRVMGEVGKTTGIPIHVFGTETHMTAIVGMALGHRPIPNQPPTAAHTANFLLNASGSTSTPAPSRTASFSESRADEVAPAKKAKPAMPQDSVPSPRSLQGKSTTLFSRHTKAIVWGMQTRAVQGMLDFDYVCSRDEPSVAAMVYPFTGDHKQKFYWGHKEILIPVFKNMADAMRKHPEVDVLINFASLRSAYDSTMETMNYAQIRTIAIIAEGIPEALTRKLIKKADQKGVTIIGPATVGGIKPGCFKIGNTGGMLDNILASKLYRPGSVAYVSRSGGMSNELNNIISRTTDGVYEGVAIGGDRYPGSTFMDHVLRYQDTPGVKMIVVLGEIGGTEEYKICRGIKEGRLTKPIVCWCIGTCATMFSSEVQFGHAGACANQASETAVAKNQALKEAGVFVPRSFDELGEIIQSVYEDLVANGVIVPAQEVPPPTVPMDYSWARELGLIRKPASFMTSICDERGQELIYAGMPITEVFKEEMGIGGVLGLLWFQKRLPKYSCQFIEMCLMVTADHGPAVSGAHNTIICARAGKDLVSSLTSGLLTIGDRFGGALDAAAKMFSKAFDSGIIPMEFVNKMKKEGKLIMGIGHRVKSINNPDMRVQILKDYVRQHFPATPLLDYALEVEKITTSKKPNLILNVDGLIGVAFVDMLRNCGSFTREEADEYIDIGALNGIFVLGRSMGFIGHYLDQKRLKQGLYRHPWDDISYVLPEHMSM

[3] = tested on: Rattus norvegicus; assay: In vivo inhibition of ACLY in po dosed rat assessed as reduction in plasma cholesterol level after 7 days relative to control; assay type: functional
[4] = tested on: Canis familiaris; assay: In vivo inhibition of ACLY in po dosed dog assessed as reduction in plasma triglyceride level after 15 days relative to control; assay type: functional, Canis lupus familiaris
[5] = tested on: Rattus norvegicus; assay: In vivo inhibition of ACLY in po dosed rat assessed as reduction in plasma triglyceride level after 7 days relative to control; assay type: functional
[6] = tested on: Canis familiaris; assay: In vivo inhibition of ACLY in po dosed dog assessed as reduction in plasma cholesterol level after 15 days relative to control; assay type: functional, Canis lupus familiaris
[7] = tested on: Rattus norvegicus; assay: In vivo inhibition of ACLY in rat administered through diet relative to control; assay type: functional
[8] = biological target: T3, ATP-citrate synthase (Rattus norvegicus, UniProt P16638); assay: as §1
T3 sequence (P16638 whole entry): T1 sequence (whole entry)

[9] = tested on: LNCaP; assay: Antiproliferative activity against human LNCAP cells; assay type: functional, cell-based
[10] = tested on: PC-3; assay: Antiproliferative activity against human PC3 cells; assay type: functional, cell-based
[11] = biological target: T4, ATP-citrate synthase (Homo sapiens) (UniProt P53396); assay: Inhibition of ACLY in human HepG2 cells assessed as reduction in cholesterol synthesis at 30 uM relative to control; assay type: cell-based
T4 sequence (whole entry): T2 sequence (P53396 whole entry)

[12] = biological target: T4, ATP-citrate synthase (Homo sapiens); assay: Inhibition of ACLY in human HepG2 cells assessed as reduction in fatty acid synthesis at 30 uM relative to control; assay type: cell-based
[13] = tested on: SK-OV-3; assay: Antiproliferative activity against human SKOV3 cells; assay type: functional, cell-based
[14] = tested on: A549; assay: Antiproliferative activity against human A549 cells; assay type: functional, cell-based
[15] = biological target: T3, ATP-citrate synthase; assay: Reversible inhibition of rat liver ACLY
[16] = biological target: T2, ATP-citrate synthase
Description: Competitive inhibition of human liver ACLY using varying levels of citrate as substrate

`CC(=O)C(C)=O` gave an inhibition [1] of 35%.
`O=C1C(c2ccc(O)c(O)c2)=c2c(c3c(n2CCc2ccc(O)cc2)=C(c2ccc(O)c(O)c2)C(=O)c2cc(O)c(O)cc2-3)-c2cc(O)c(O)cc21` [PURPURONE] showed a pIC50 [2] of 5.15.
`O=C(O)C[C@@](O)(C[C@H](O)CCCCCCc1ccc(Cl)cc1Cl)C(=O)O` was tested, and the “inhibition (INH)” value [3] was “<=46%”, the “inhibition (INH)” value [4] was “<=38%” and the “inhibition (INH)” value [5] was “<=80%”. The “inhibition (INH)” value [6] was “<=23%”.
With `Clc1cccc(-c2ccc(Cl)c(Cl)c2Cl)c1Cl` the “inhibition (INH)” value [7] was 69%.
With `CCCCCC[C@H]1C(=O)O[C@H](C)[C@H](NC(=O)c2cccc(NC=O)c2O)C(=O)O[C@@H](C)[C@@H]1OC(=O)CCC` the pKi [8] was 5.40.
For `CC(=O)OC(C)(C)/C=C/C(=O)[C@](C)(O)[C@H]1[C@H](O)C[C@@]2(C)[C@@H]3CC=C4[C@@H](C[C@H](O)C(=O)C4(C)C)[C@]3(C)C(=O)C[C@]12C`, the pIC50 [9] was 7.00 and the pIC50 [10] was 7.00.
`CC12Oc3ccc(-c4ccc5c(c4O)C(=O)C4=C(O)C6OC6(C)C(OC(=O)CC(=O)O)C4(C)O5)c(O)c3C(=O)C1=C(O)C1OC1(C)C2O` (stereo not given) showed a pIC50 [8] of 5.02.
For `O=C1C[C@@](O)(C(=O)O)[C@@H](C(=O)O)O1`, the pKi [8] was 4.00 to 4.30.
Compound `CCCCCC[C@H]1C(=O)O[C@H](C)[C@H](NC(=O)c2cccc(NC=O)c2O)C(=O)O[C@@H](C)[C@@H]1OC(=O)C(C)C` has a pKi [8] of 5.40.
Compound `CC(C)CC[C@H]1C(=O)O[C@H](C)[C@H](NC(=O)c2cccc(NC=O)c2O)C(=O)O[C@@H](C)[C@@H]1OC(=O)CC(C)C` has a pKi [8] of 5.40.
`O=C(O)C[C@@]1(O)C[C@@H](CCCCCCc2ccc(Cl)cc2Cl)OC1=O` was tested, and the inhibition [11] was 91%, the inhibition [12] was 82% and the pIC50 [13] was 4.28. For the same compound, the pIC50 [10] was 4.59 and the pIC50 [14] was 4.62.
`CC1=CC(O)=C2C(=O)c3c(ccc(-c4ccc5c(c4O)C(=O)C4=C(O)C6OC6(C)C(OC(=O)CC(=O)O)C4(C)O5)c3O)OC2(C)C1=O` (stereo not given) was tested, and the pIC50 [8] was 5.21.
Work on `CS(=N)(=O)C[C@@](O)(CC(=O)O)C(=O)O` (stereo not given in full) yielded a pKi [15] of 3.60.
For `O=C(O)C[C@@](O)(C(=O)O)[C@H](O)C(=O)O`, the pKi [16] was 3.52.
With `O=CC(=O)c1ccccc1` the inhibition [1] was 85%.
With `CCC(C)C(=O)O[C@H]1[C@H](C)OC(=O)[C@@H](NC(=O)c2cccc(NC=O)c2O)[C@@H](C)OC(=O)[C@@H]1CCC(C)C` (stereo not given in full) the pKi [8] was 5.40.
`N[C@@H](CCC(=O)O)C(=O)O` [GLUTAMIC ACID] showed a pKi [8] of 3.52.
